In patent publication US20120295907A1, “INSECTICIDAL COMPOUNDS” (SYNGENTA CROP PROTECTION, LLC, priority 2009, published 2012):

Assays:
Type in all cases: in vivo
[1] = system: Diabrotica balteata; assay: Diabrotica balteata (Corn Root Worm) artificial diet MTP test; details: 120 h, 200 ppm (concentration in well 18 ppm), L2 larvae, 5 days, larval mortality, growth regulation
[2] = system: Plutella xylostella; assay: Plutella xylostella (Diamond Back Moth) artificial diet MTP test; details: 144 h, 200 ppm (concentration in well 18 ppm), L2 larvae, 6 days, larval mortality, growth regulation
[3] = system: Heliothis virescens; assay: Heliothis virescens (Tobacco Budworm) egg test on artificial diet; details: 96 h, 200 ppm (concentration in well 18 ppm), eggs 0-24 h old on artificial diet, 4 days, egg mortality, larval mortality, growth regulation
[4] = system: Spodoptera littoralis; assay: Spodoptera littoralis (Egyptian Cotton Leafworm) cotton leaf disc spray test; details: foliar, 72 h, 200 ppm spray on cotton leaf discs, L1 larvae, mortality, feeding behavior, growth regulation 3 DAT
[5] = system: Thrips tabaci; assay: Thrips tabaci (Onion Thrips) sunflower leaf disc spray test; details: foliar, 168 h, 200 ppm spray on sunflower leaf discs, population of mixed ages, 7 days, mortality

Measured: pest or weed control at 200 ppm

COc1cccc(F)c1C(=O)Nc1cccc(C(=O)Nc2c(Cl)cc(C(F)(C(F)(F)F)C(F)(F)C(F)(F)F)cc2Br)c1OC (stereo not shown) [B166]
not listed: [5]
≥ 80%: all other assays above

COc1c(NC(=O)c2cc([N+](=O)[O-])cc([N+](=O)[O-])c2C)cccc1C(=O)Nc1c(Cl)cc(C(F)(C(F)(F)F)C(F)(F)C(F)(F)F)cc1Br (stereo not shown) [B86]
not listed: [5]
≥ 80%: all other assays above

COc1c(NC(=O)c2cc([N+](=O)[O-])ccc2Cl)cccc1C(=O)Nc1c(Cl)cc(C(F)(C(F)(F)F)C(F)(F)C(F)(F)F)cc1Br (stereo not shown) [B62]
not listed: [5]
≥ 80%: all other assays above

COc1cccc(C(=O)Nc2cccc(C(=O)Nc3c(C)cc(C(F)(C(F)(F)F)C(F)(F)C(F)(F)F)cc3C)c2OC)c1 (stereo not shown) [F22]
not listed: [5]
≥ 80%: all other assays above

COc1c(NC(=O)c2ccc(SC)cc2[N+](=O)[O-])cccc1C(=O)Nc1c(Cl)cc(C(F)(C(F)(F)F)C(F)(F)C(F)(F)F)cc1Br (stereo not shown) [B116]
not listed: [5]
≥ 80%: all other assays above

COc1c(NC(=O)c2cc(Cl)ccc2F)cccc1C(=O)Nc1c(Cl)cc(C(F)(C(F)(F)F)C(F)(F)F)cc1Cl [E8]
not listed: [5]
≥ 80%: all other assays above

COCc1cc(C(F)(C(F)(F)F)C(F)(F)C(F)(F)F)cc(Br)c1NC(=O)c1cccc(NC(=O)c2ccc(C#N)cc2C)c1OC (stereo not shown) [I1]
≥ 80%: [1] | [2] | [3]

COc1c(NC(=O)c2cn(C)nc2C(F)F)cccc1C(=O)Nc1c(Cl)cc(C(F)(C(F)(F)F)C(F)(F)C(F)(F)F)cc1Br (stereo not shown) [B131]
not listed: [5]
≥ 80%: all other assays above

COc1c(NC(=O)c2cc(Br)ccc2Cl)cccc1C(=O)Nc1c(Cl)cc(C(F)(C(F)(F)F)C(F)(F)C(F)(F)F)cc1Br (stereo not shown) [B83]
not listed: [5]
≥ 80%: all other assays above

CCc1cc(C(F)(C(F)(F)F)C(F)(F)C(F)(F)F)cc(C)c1NC(=O)c1cccc(NC(=O)c2ccc(F)cc2)c1OC (stereo not shown) [A1, N-[2-ethyl-4-(1,2,2,3,3,3-hexafluoro-1-trifluoromethylpropyl)-6-methylphenyl]-3-(4-fluorobenzoylamino)-2-methoxybenzamide]
not listed: [5]
≥ 80%: all other assays above

COc1c(NC(=O)c2ccc(Cl)cc2)cccc1C(=O)Nc1c(C)cc(C(F)(C(F)(F)F)C(F)(F)C(F)(F)F)cc1C (stereo not shown) [F19]
not listed: [5]
≥ 80%: all other assays above

COc1c(NC(=O)c2ccc([N+](=O)[O-])c(C)c2)cccc1C(=O)Nc1c(C)cc(C(F)(C(F)(F)F)C(F)(F)C(F)(F)F)cc1C (stereo not shown) [F23]
not listed: [5]
≥ 80%: all other assays above

COc1c(NC(=O)c2cccc([N+](=O)[O-])c2Br)cccc1C(=O)Nc1c(Cl)cc(C(F)(C(F)(F)F)C(F)(F)C(F)(F)F)cc1Br (stereo not shown) [B85]
not listed: [5]
≥ 80%: all other assays above

COc1c(NC(=O)c2ccc(-c3ccccc3)o2)cccc1C(=O)Nc1c(Cl)cc(C(F)(C(F)(F)F)C(F)(F)C(F)(F)F)cc1Br (stereo not shown) [B49]
≥ 80%: [5]

COc1c(NC(=O)c2cnccc2C(F)(F)F)cccc1C(=O)Nc1c(Cl)cc(C(F)(C(F)(F)F)C(F)(F)C(F)(F)F)cc1Br (stereo not shown) [B126]
not listed: [5]
≥ 80%: all other assays above

COc1c(NC(=O)c2cn(C)nc2C#N)cccc1C(=O)Nc1c(Cl)cc(C(F)(C(F)(F)F)C(F)(F)C(F)(F)F)cc1Br (stereo not shown) [B117]
not listed: [5]
≥ 80%: all other assays above

COc1c(NC(=O)c2ccc(C(F)(F)F)cc2)cccc1C(=O)Nc1c(C)cc(C(F)(C(F)(F)F)C(F)(F)C(F)(F)F)cc1C (stereo not shown) [F26]
not listed: [5]
≥ 80%: all other assays above

COc1c(NC(=O)c2ncc(Cl)cc2Cl)cccc1C(=O)Nc1c(Cl)cc(C(F)(C(F)(F)F)C(F)(F)C(F)(F)F)cc1Br (stereo not shown) [B185]
not listed: [5]
≥ 80%: all other assays above

COc1c(NC(=O)c2cccc(F)c2F)cccc1C(=O)Nc1c(Cl)cc(C(F)(C(F)(F)F)C(F)(F)C(F)(F)F)cc1Br (stereo not shown) [B22]
not listed: [5]
≥ 80%: all other assays above

COc1c(NC(=O)c2c(-c3ccccc3)noc2C)cccc1C(=O)Nc1c(Cl)cc(C(F)(C(F)(F)F)C(F)(F)C(F)(F)F)cc1Br (stereo not shown) [B46]
≥ 80%: [5]

CCc1cc(C(F)(C(F)(F)F)C(F)(F)F)cc(C)c1NC(=O)c1cccc(NC(=O)c2ccc(C#N)cc2C)c1OC [J4]
≥ 80%: [1] | [2] | [3]

COc1c(NC(=O)c2ccc(C(F)(F)F)cc2SC)cccc1C(=O)Nc1c(Cl)cc(C(F)(C(F)(F)F)C(F)(F)C(F)(F)F)cc1Br (stereo not shown) [B125]
≥ 80%: [1] | [2] | [3]

COc1c(NC(=O)c2cc(C(F)(F)F)n(C)n2)cccc1C(=O)Nc1c(Cl)cc(C(F)(C(F)(F)F)C(F)(F)C(F)(F)F)cc1Br (stereo not shown) [B92]
≥ 80%: [1] | [5] | [4]

COc1c(NC(=O)c2cc([N+](=O)[O-])c(F)cc2Cl)cccc1C(=O)Nc1c(Cl)cc(C(F)(C(F)(F)F)C(F)(F)C(F)(F)F)cc1Br (stereo not shown) [B130]
not listed: [5]
≥ 80%: all other assays above

CCc1cc(C(F)(C(F)(F)F)C(F)(F)F)cc(C)c1NC(=O)c1cccc(NC(=O)c2c(F)cc(F)cc2F)c1OC [J3]
≥ 80%: [1] | [2] | [3]

COc1c(NC(=O)c2ccc(F)cc2F)cccc1C(=O)Nc1c(C)cc(C(F)(C(F)(F)F)C(F)(F)C(F)(F)F)cc1C (stereo not shown) [F9]
not listed: [5]
≥ 80%: all other assays above

COc1c(NC(=O)c2cc(C)n(C)n2)cccc1C(=O)Nc1c(Cl)cc(C(F)(C(F)(F)F)C(F)(F)C(F)(F)F)cc1Br (stereo not shown) [B100]
not listed: [5]
≥ 80%: all other assays above

COc1c(NC(=O)c2ccc(Cl)c(Cl)c2)cccc1C(=O)Nc1c(C)cc(C(F)(C(F)(F)F)C(F)(F)C(F)(F)F)cc1C (stereo not shown) [F17]
not listed: [5]
≥ 80%: all other assays above

COc1c(NC(=O)c2cc(C)ccc2Cl)cccc1C(=O)Nc1c(Cl)cc(C(F)(C(F)(F)F)C(F)(F)C(F)(F)F)cc1Br (stereo not shown) [B72]
not listed: [5]
≥ 80%: all other assays above

COc1c(NC(=O)c2cc(Cl)ccc2F)cccc1C(=O)Nc1c(Cl)cc(C(F)(C(F)(F)F)C(F)(F)C(F)(F)F)cc1Cl (stereo not shown) [C10]
≥ 80%: [1] | [3] | [4]

COc1c(NC(=O)c2cnccn2)cccc1C(=O)Nc1c(Cl)cc(C(F)(C(F)(F)F)C(F)(F)C(F)(F)F)cc1Br (stereo not shown) [B56]
not listed: [5]
≥ 80%: all other assays above

COCc1cc(C(F)(C(F)(F)F)C(F)(F)C(F)(F)F)cc(Cl)c1NC(=O)c1cccc(NC(=O)c2c(F)cc(F)cc2F)c1OC (stereo not shown) [H2]
≥ 80%: [1] | [2] | [3]

COc1c(NC(=O)c2cc(C)oc2C(F)(F)F)cccc1C(=O)Nc1c(Cl)cc(C(F)(C(F)(F)F)C(F)(F)C(F)(F)F)cc1Br (stereo not shown) [B144]
not listed: [5]
≥ 80%: all other assays above

COc1c(NC(=O)c2ccc([N+](=O)[O-])c(N(C)C)c2)cccc1C(=O)Nc1c(Cl)cc(C(F)(C(F)(F)F)C(F)(F)C(F)(F)F)cc1Br (stereo not shown) [B175]
not listed: [1]
≥ 80%: all other assays above

COc1c(NC(=O)c2ccc(C)c(Br)c2)cccc1C(=O)Nc1c(Cl)cc(C(F)(C(F)(F)F)C(F)(F)C(F)(F)F)cc1Br (stereo not shown) [B84]
not listed: [5]
≥ 80%: all other assays above
